Measured values published in patent US20220143183A1, “PHOTOSWITCHABLE PROTACS AND SYNTHESIS AND USES THEREOF” (New York University, priority 2019, published 2022).
Entries after “also recorded” stand apart in the source; their conditions may differ.

What was measured:
Type in all cases: cell-based, human
RS4;11 lymphoblast cells = assay: Cell viability assay (Promega MTS), dark or pulsed irradiation; settings: 72 h; for EC50: Homo sapiens
Description: Optical control of BRD2-4 with PHOTACs. To assess the biological activity of the PHOTACs, their effect on the viability of RS4;11 lymphoblast cells was tested. Cells were treated in a 96-well plate with increasing concentrations of PHOTACs and were either irradiated with 390 nm light pulses (100 ms every 10 s) for 72 h or incubated with the compound in the dark. Subsequently, cell viability assays (Promega MTS) were performed, as previously described.
Cell culture. The human acute lymphoblastic leukemia RS4;11 (ATCC® CRL-1873™) cell line was purchased from the American Type Culture Collection and cultured in RPMI1640 medium (Gibco) with 10% fetal bovine serum (FBS) and 1% penicillin/streptomycin (PS) in a humidified incubator at 37° C. with 5% CO2 in air. Cells were divided every 2-3 days and the concentration was maintained between 1×10^5 and 1×10^6 cells/mL. For the experiments compounds were serially diluted in RPMI160 without the dye phenol red (Gibco) to reduce the influence of the dye by absorption. Azobenzene stocks and dilutions were strictly kept in the dark and prepared under red light conditions.
Colorimetric MTT Assays. The activity of dehydrogenase enzymes in metabolically active cells, as a quantitative measurement for cytotoxicity and proliferation, was determined by colorimetric measurement of the reduction of [3-(4,5-dimethylthiazol-2-yl)-5-(3-carboxymethoxyphenyl)-2-(4-sulfophenyl)-2H-tetrazolium (MTS) to formazan. The absorbance of formazan at 490 nm was measured on a FLUOstar Omega microplate reader (BMG Labtech).
Cells were treated with different concentrations, ranging from 10 μM to 1 nM, of our compounds and incubated on a 96-well plate for 72 h. They were placed in light-proof boxes and exposed to the lighting conditions specified in the experiment for 72 h. Next, 10 μL of Promega CellTiter 96® AQueous One Solution Reagent was added to each well and incubated for further 4-7 hours. The absorbance at 490 nm was then recorded with a 96-well plate reader.
LED illumination. For illumination of the cells we used the cell disco system as previously described in the literature^[25]. 390 nm 5 mm LEDs were purchased from Roithner Lasertechnik. Cells were preirradiated for 1 min at 390 nm, followed by 100 ms pulses every 10 s in 96- or 6-well plates.

c-MYC = assay: Immunoblot of c-MYC levels in RS4;11 cells
Description: Photoactivatable degraders and inhibitors of BRD4, c-MYC levels were also affected.
The slight effect on c-MYC can be explained by inhibition of BRD4 with the (+)-JQ1 derivative PHOTAC-I-3 in the absence of targeted degradation.
Western Immunoblot Analysis. Rabbit monoclonal Antibodies for BRD4 (#13440), β-Actin (#4970) c-Myc (#5605) and Anti-rabbit IgG, HRP-linked Antibody (#7074) were purchased from Cell Signalling Technologies.
Cells were incubated with different concentrations of selected compounds. They were placed in a light-proof box and preirradiated for 1 min at 390 nm followed by 100 ms pulses every 10 s or were kept in the dark for 4 h.
Cultured cells were collected by centrifugation and washed twice with cold PBS. The supernatant was removed and each cell pellet was lysed in 100 μL NP40-Cell-Lysis Buffer+0.1% SDS+1 mM PMSF+ protease inhibitor cocktail (Sigma Aldrich) for 30 min on ice, with vortexing at 10-minute intervals. Afterwards, cells were centrifuged at 13.000 rpm for 10 min at 4° C. Samples were stored on ice and the supernatant was collected for protein concentration determination using a Thermofisher Scientific Pierce™ Coomassie Plus (Bradford) Assay Kit.
The samples were diluted each with 5 μL Laemmli sample buffer Invitrogen (NuPAGE LDS Sample Buffer 4×) and 1 μL DTT, heated at 95° C. for 5 min. […]

PARP-1 = assay: Immunoblot of PARP-1 cleavage in RS4;11 cells; settings: 1 μM, sustained 390 nm pulse irradiation
Description: FIG. 5 depicts optical control of BRD2-4 levels. A) Immunoblot analysis after treatment of RS4;11 cells with PHOTAC-I-3 for 4 h at different concentrations. Cells were either irradiated with 100 ms pulses of 390 nm light every 10 s (left) or kept in the dark (right). B) Time course of BRD2-4 degradation, c-MYC levels and PARP1 cleavage assayed by immunoblotting. RS4;11 cells were treated with PHOTAC-I-3 (1 μM) and collected at the indicated time points. PHOTAC-I-3 has no effect on BRD2-4 levels in the dark over several hours. […] D) Color-dosing: Wavelength dependence of BRD2/4 degradation promoted by 300 nM PHOTAC-I-3. E) Immunoblot analysis after treatment of RS4;11 cells with PHOTAC-I-3 and combinations with lenalidomide or (+)-JQ1 for 4 h to confirm a cereblon-based mechanism. Cells were either irradiated with 100 ms pulses of 390 nm light every 10 s (left) or kept in the dark (right). F) Optical degradation of BRD4 with the thalidomide derivative PHOTAC-I-10. Immunoblot analysis of RS4;11 cells after treatment with PHOTAC-I-10 for 4 h at different concentrations which were either irradiated with 100 ms pulses of 390 nm light every 10 s (left) or kept in the dark (right). […] The slight effect on c-MYC can be explained by inhibition of BRD4 with the (+)-JQ1 derivative PHOTAC-I-3 in the absence of targeted degradation.

`COc1cc(/N=N/c2cccc3c2CN(C2CCC(=O)NC2=O)C3=O)cc(OC)c1OCC(=O)NCCCCNC(=O)C[C@@H]1N=C(c2ccc(Cl)cc2)c2c(sc(C)c2C)-n2c(C)nnc21` (stereo partly drawn) [PHOTAC-I-3, 2-((S)-4-(4-chlorophenyl)-2,3,9-trimethyl-6H-thieno[3,2-f][1,2,4]triazolo[4,3-a][1,4]diazepin-6-yl)-N-(4-(2-(4-((E)-(2-(2,6-dioxopiperidin-3-yl)-1-oxoisoindolin-4-yl)diazenyl)-2,6-dimethoxyphenoxy)acetamido)butyl)acetamide] was tested, and the “EC50 difference dark vs 390 nM” value (RS4;11 lymphoblast cells) was 7.1 fold, the “light dependence of activity in viability assay” value (RS4;11 lymphoblast cells; dark vs pulsed 390 nm irradiation) was “largest difference between light and dark activity” and the EC50 (RS4;11 lymphoblast cells; RS4-11, light or radiation study, irradiated with 390 nm light pulses (100 ms every 10 s)) was 0.0885 µM. The EC50 (RS4;11 lymphoblast cells; RS4-11, in the dark) was 0.631 µM, the c-MYC downregulation (c-MYC; 390 nm pulse irradiation) was “more pronounced when cells were pulse-irradiated; also recorded: c-MYC downregulation over 24 hours” and the c-MYC levels (c-MYC; in the dark) was “relatively little effect on c-MYC levels”. For the same compound, the “PARP-1 cleavage (indicator of apoptosis)” value (PARP-1) was “increasing cleavage of PARP-1”.
